In patent publication US9925189B2, “Heterocyclic receptor agonists for the treatment of diabetes and metabolic disorders” (CymaBay Therapeutics, Inc., priority 2006, dated 2018):

Target: T1, IC-GPCR2 (Homo sapiens, UniProt Q8TDV5, S309L)
T1 construct: expressed in transfected cells
T1 sequence (Q8TDV5 1-335 S309L): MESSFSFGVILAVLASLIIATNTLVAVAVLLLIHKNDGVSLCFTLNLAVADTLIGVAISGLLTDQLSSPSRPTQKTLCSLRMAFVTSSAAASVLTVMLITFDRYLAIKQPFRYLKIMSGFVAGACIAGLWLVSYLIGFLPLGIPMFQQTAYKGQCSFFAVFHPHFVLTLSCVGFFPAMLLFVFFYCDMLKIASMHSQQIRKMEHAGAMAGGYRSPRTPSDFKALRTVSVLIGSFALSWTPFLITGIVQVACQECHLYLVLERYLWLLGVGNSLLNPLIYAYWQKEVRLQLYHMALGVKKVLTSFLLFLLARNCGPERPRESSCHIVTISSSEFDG
Assay: Stimulation of cAMP in CHO cells stably expressing IC-GPCR2 (HTRF cAMP assay)
Assay type: cell-based
Design: key to Activity at 10 uM: *: no activity observed when tested at 10 micromolar but no higher concentrations were tested
Conditions: for activation at 10 µM: 0.5 h, 30 minutes, IC-GPCR2 stably expressing CHO cells, read-out: Activity at 10 uM (% change in FRET signal from DMSO control)
Summary of the method: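 CHO cells stably expressing IC-GPCR2, plated at 17500 cells/well, treated next day for 30 min in Ham's F12 with compounds at 6–8 concentrations from 0.00003 to 10 μM; parental CHO cells also screened. Intracellular cAMP read by HTRF competitive immunoassay (665/620 nm ratio). Activity given as % FRET change from DMSO control.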

| SMILES | activation at 10 µM | Activity at 10 uM (symbol entry) |
| --- | --- | --- |
| O=[N+]([O-])c1cnc(N2CCC(c3nc(COc4ccc(-n5cnnn5)cc4)cs3)CC2)nc1 [Example 192, 5-Nitro-2-{4-[4-(4-tetrazol-1-yl-phenoxymethyl)-thiazol-2-yl]-piperidin-1-yl}-pyrimidine] | 74% | – |
| FC(F)(F)c1cnc(N2CCC(c3nc(COc4ccc(-n5cnnn5)cc4)cs3)CC2)c(Cl)c1 [Example 193, 3′-Chloro-4-[4-(4-tetrazol-1-yl-phenoxymethyl)-thiazol-2-yl]-5′-trifluoromethyl-3,4,5,6-tetrahydro-2H-[1,2′]bipyridinyl] | 35% | – |
| Fc1cc(-n2cnnn2)ccc1OCc1csc(C2CCN(c3ncc(C(F)(F)F)cc3Cl)CC2)n1 [Example 194, 3′-Chloro-4-[4-(2-fluoro-4-tetrazol-1-yl-phenoxymethyl)-thiazol-2-yl]-5′-trifluoromethyl-3,4,5,6-tetrahydro-2H-[1,2′]bipyridinyl] | 29% | – |
| Fc1cc(-n2cnnn2)ccc1OCc1csc(C2CCN(c3ncc(Cl)cn3)CC2)n1 [Example 195, 5-Chloro-2-{4-[4-(2-fluoro-4-tetrazol-1-yl-phenoxymethyl)-thiazol-2-yl]-piperidin-1-yl}-pyrimidine] | 68% | – |

Continued, values first:

| activation at 10 µM | Activity at 10 uM (symbol entry) | SMILES |
| --- | --- | --- |
| 19% | – | Clc1cnc(N2CCC(c3nc(COc4ccc(-n5cnnn5)cc4)cs3)CC2)c(Cl)c1 [Example 196, 3′,5′-Dichloro-4-[4-(4-tetrazol-1-yl-phenoxymethyl)-thiazol-2-yl]-3,4,5,6-tetrahydro-2H-[1,2′]bipyridinyl] |
| – | * | CCOC(=O)c1cnc(N2CCC(c3nc(COc4ccc(-n5cnnn5)cc4)cs3)CC2)c(Cl)c1 [Example 197, 3′-Chloro-4-[4-(4-tetrazol-1-yl-phenoxymethyl)-thiazol-2-yl]-3,4,5,6-tetrahydro-2H-[1,2′]bipyridinyl-5′-carboxylic acid ethyl ester] |
| 15% | – | COC(=O)c1cc(Cl)cnc1N1CCC(c2nc(COc3ccc(-n4cnnn4)cc3)cs2)CC1 [Example 198, 5′-Chloro-4-[4-(4-tetrazol-1-yl-phenoxymethyl)-thiazol-2-yl]-3,4,5,6-tetrahydro-2H-[1,2′]bipyridinyl-3′-carboxylic acid methyl ester] |
| 76% | – | CCc1cnc(N2CCC(c3nc(COCc4ccc(S(C)(=O)=O)cc4)cs3)CC2)nc1 [Example 203, 5-Ethyl-2-{4-[4-(4-methanesulfonyl-benzyloxymethyl)-thiazol-2-yl]-piperidin-1-yl}-pyrimidine] |
| 75% | – | FC(F)(F)c1cnc(N2CCC(c3nc(COc4ccc(-n5cnnn5)cc4)cs3)CC2)nc1 [Example 205] |
